In one assay the test system is IL-1β. The assay can be described thus: ELISA of IL-1β in medium of LPS-stimulated monocytes. It counts as cell-based, human. The following applies: 300 μM. Here is the method:
(§1) FIG. 5—The inhibitory effects of GroPIns are also evident at the protein expression level. Purified monocytes (4×10^3 cells/sample) were pre-incubated for 20 min at 37° C. in the absence and presence of 300 μM GroPIns, and then for a further 5 h and 24 h without or with 0.1 μg/ml LPS from E. coli. At the end of this incubation, the levels of TNFα, IL-1β and TxB-2 in the medium were assessed by ELISA. In monocytes alone, the protein concentrations were under the assay detection limits at both the times. The data are representative of three independent experiments performed with cells from different donors. Exposure of monocytes to LPS induced a time-dependent increase in the […] levels of all of the cytokines analysed.
(§2) Cellular levels of TNFα, IL-1β and TxB-2 were quantified by enzyme-linked immunosorbent assay (ELISA). Conditioned medium from monocytes was sedimented by centrifugation at 300×g at room temperature for 10 min to eliminate cellular debris. Then, the supernatant was recovered and the concentrations of TNFα, IL-1β and TxB-2 were assessed by ELISA, as specified by the manufacturers (Amersham Pharmacia Biotech (NJ, USA).
In general terms: In an ELISA, binding on a coated surface is turned into a signal by an enzyme label.

The subject of assay [1] is interleukin-1 receptor II (IL-1RII) gene expression. The assay can be described thus: In vitro model of human inflammation: real-time PCR of IL-1RII. To be noted: 300 μM; 4 h, 14 h, 24 h, 48 h; one donor, preliminary. It counts as cell-based. Here is the method: FIG. 15—Glycerophosphoinositol modulates the kinetic transcriptional profile of genes involved in the regulation of inflammatory response. Human monocytes were purified from one donor and treated according to the in vitro model of human inflammation, previously described, in absence (blue line) or in presence (red line) of 300 μM glycerophosphoinositol. In detail glycerophosphoinositol was added to cells in culture 20 minutes before LPS, IL-10 and TGF-β, that is, again after each wash. Samples were collected at time 4 h, 14 h, 24 h, 48 h; freshly isolated monocytes have been considered as control at time 0 h. Total RNA was extracted from cells by RNeasy kit (Qiagen) and reverse-transcribed to cDNA (QuantiTect Reverse Transcription kit, Qiagen). […] Each sample was measured in triplicate and data were analyzed with Pfaffl methods for comparing relative expression data. The measurement of mRNA expression was expressed as fold-increase over control (time 0 h). […]
Total RNA was extracted with RNeasy kit (Qiagen) according to the manufacturer's instructions. Both integrity and quality of total RNA were checked by agarose gel electrophoresis and the concentration of each RNA sample was assessed spectrophotometrically. Total RNAs were reverse-transcribed to cDNA (QuantiTect Reverse Transcription kit, Qiagen) with oligo-dT and random primers, according to manufacturer's protocol. […]

The test system of a further assay is TxB-2. The assay can be described thus: ELISA of TxB-2 in medium of LPS-stimulated monocytes. It counts as cell-based, human. The following applies: 300 μM. The protocol: as §1, §2

Regarding `O=P(O)(OCC(O)CO)OC1C(O)C(O)C(O)C(O)C1O` (centres unmarked) [GroPIns, glycerophosphoinositol], the figures for the “level of IL-1β in the medium” value in the assay on IL-1β (0.1 μg/ml LPS for 5 h) and in the assay on IL-1β (0.1 μg/ml LPS for 24 h) were “very small effects” and “significantly reduced”, respectively. For the same compound, the “IL-1RII mRNA expression” value in assay [1] is “favoured the expression”. Further, the “level of TxB-2 in the medium” value is on record as “very small effects” in the assay on TxB-2 (0.1 μg/ml LPS for 5 h) and “significantly reduced” with TxB-2 (0.1 μg/ml LPS for 24 h).
